Laboratory results as given in patent US10676477B2, “Factor XIa macrocycle inhibitors bearing a non-aromatic P2' group” (BRISTOL-MYERS SQUIBB COMPANY, priority 2015, dated 2020).
Like-named read-outs stand apart in the source and are kept apart here.

Tests used:
[1] = rcm bond, DCE, 50.0 °C
human Factor XIa = target: T1, human Factor XIa (Homo sapiens, UniProt P03951); assay: Factor XIa enzyme inhibition assay (chromogenic substrate S-2366), Ki; type: biochemical; conditions: purified human Factor XIa, substrate S-2366, pH 7.4
T1 construct: purchased Haematologic Technologies
Description: (§1) The effectiveness of compounds of the present invention as inhibitors of the coagulation Factors XIa, VIIa, IXa, Xa, XIIa, plasma kallikrein chymotrypsin, trypsin, or thrombin, can be determined using a relevant purified serine protease, respectively, and an appropriate synthetic substrate. The rate of hydrolysis of the chromogenic or fluorogenic substrate by the relevant serine protease was measured both in the absence and presence of compounds of the present invention. […] A decrease in the rate of absorbance or fluorescence change in the presence of inhibitor is indicative of enzyme inhibition. Such methods are known to one skilled in the art. The results of this assay are expressed as the inhibitory constant, Ki.
Factor XIa determinations were made in 50 mM HEPES buffer at pH 7.4 containing 145 mM NaCl, 5 mM KCl, and 0.1% PEG 8000 (polyethylene glycol; JT Baker or Fisher Scientific). Determinations were made using purified human Factor XIa at a final concentration of 25-200 pM (Haematologic Technologies) and the synthetic substrate S-2366 (pyroGlu-Pro-Arg-pNA; CHROMOGENIX® or AnaSpec) at a concentration of 0.0002-0.001 M.
(§2) The Michaelis constant, Km, for substrate hydrolysis by each protease, was determined at 25° C. or 37° C. in the absence of inhibitor. Values of Ki were determined by allowing the protease to react with the substrate in the presence of the inhibitor. Reactions were allowed to go for periods of 20-180 minutes (depending on the protease) and the velocities (rate of absorbance or fluorescence change versus time) were measured. The following relationships were used to calculate Ki values: (Vmax*S)/(Km+S) (vo−vs)/vs=I/(Ki*(1+S/Km)) for a competitive inhibitor with one binding site; or vs/vo=A+((B−A)/(1+(IC50/(I)^n)); and Ki=IC50/(1+S/Km) for a competitive inhibitor where: […]

human plasma kallikrein = target: T2, human plasma kallikrein (Homo sapiens, UniProt P03952); assay: Plasma kallikrein enzyme inhibition assay (chromogenic substrate S-2302), Ki; type: biochemical; conditions: purified human plasma kallikrein, substrate S-2302, pH 7.5
T2 construct: purchased Enzyme Research Laboratories
Description: as §1
Plasma kallikrein determinations were made in 0.1 M sodium phosphate buffer at a pH of 7.5 containing 0.1-0.2 M sodium chloride and 0.5% PEG 8000. Determinations were made using purified human plasma kallikrein (Enzyme Research Laboratories) at a final assay concentration of 200 pM and the synthetic substrate S-2302 (H-(D)-Pro-Phe-Arg-pNA; CHROMOGENIX®) at a concentration of 0.00008-0.0004 M.
as §2

T2 sequence (P03952 391-638 limits assumed): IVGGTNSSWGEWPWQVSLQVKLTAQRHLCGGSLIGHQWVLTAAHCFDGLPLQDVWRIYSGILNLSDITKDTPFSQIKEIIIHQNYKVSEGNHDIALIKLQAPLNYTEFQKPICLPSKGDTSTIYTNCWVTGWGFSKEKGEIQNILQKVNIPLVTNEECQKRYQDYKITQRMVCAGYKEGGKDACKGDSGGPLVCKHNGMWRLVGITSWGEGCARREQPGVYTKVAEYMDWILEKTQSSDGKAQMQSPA
T2 sequence (P03952 20-390 partner limits assumed): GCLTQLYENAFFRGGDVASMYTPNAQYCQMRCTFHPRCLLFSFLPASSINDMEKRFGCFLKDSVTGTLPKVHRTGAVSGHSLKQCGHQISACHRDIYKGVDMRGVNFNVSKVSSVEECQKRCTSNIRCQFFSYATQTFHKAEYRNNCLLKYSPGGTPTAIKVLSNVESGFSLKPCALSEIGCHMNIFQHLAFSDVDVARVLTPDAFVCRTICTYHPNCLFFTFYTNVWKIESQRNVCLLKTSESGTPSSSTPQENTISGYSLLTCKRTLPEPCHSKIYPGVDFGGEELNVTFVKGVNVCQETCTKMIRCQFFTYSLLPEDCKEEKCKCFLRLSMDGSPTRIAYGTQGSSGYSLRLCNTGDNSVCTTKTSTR
T1 sequence (P03951 388-625 limits assumed): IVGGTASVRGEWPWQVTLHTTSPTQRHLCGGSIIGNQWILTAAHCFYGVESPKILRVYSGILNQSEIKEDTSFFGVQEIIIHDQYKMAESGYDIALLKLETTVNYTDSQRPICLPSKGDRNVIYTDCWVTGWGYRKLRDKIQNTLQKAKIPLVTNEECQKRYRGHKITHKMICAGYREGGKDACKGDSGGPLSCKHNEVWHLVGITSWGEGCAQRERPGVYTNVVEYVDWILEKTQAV
T1 sequence (P03951 19-387 partner limits assumed): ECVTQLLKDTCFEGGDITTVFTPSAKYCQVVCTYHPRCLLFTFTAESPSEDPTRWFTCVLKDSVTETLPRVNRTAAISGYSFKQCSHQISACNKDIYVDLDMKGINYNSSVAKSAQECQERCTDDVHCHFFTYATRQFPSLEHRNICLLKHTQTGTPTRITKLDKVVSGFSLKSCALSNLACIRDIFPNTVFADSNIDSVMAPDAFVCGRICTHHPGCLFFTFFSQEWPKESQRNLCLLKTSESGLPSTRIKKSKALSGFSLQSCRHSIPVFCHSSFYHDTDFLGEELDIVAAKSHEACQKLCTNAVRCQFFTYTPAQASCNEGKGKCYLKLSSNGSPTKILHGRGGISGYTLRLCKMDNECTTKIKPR

## CC(C)(C)OC(=O)NC[C@H]1Nc2cccc(c2)[C@@H](NC(=O)OCc2ccccc2)C/C=C/CCNC1=O
[1]; from C=CCCNC(=O)[C@@H](CNC(=O)OC(C)(C)C)Nc1cccc([C@H](CC=C)NC(=O)OCc2ccccc2)c1, 13-membered ring, Grubbs II (20 mol%)/pTsOH.H2O (1 eq), 10.2 mM, 5.0 h
  ring closure, isolated yield: 37%

## CC(C)(C)OC(=O)N1CCN2c3cccc(c3)[C@@H](NC(=O)OCc3ccccc3)C/C=C/CCNC(=O)[C@H]2C1
[1]; from C=CCCNC(=O)[C@H]1CN(C(=O)OC(C)(C)C)CCN1c1cccc([C@H](CC=C)NC(=O)OCc2ccccc2)c1, 13-membered ring, Grubbs II (20 mol%), 9.78 mM, 5.0 h
  ring closure, isolated yield: 81%

## CC(C)(C)OC(=O)N1CC(=O)N2c3cccc(c3)[C@@H](NC(=O)OCc3ccccc3)CC=CCCNC(=O)[C@H]2C1 (mixture of isomers)
[1]; from C=CCCNC(=O)[C@H]1CN(C(=O)OC(C)(C)C)CC(=O)N1c1cccc([C@H](CC=C)NC(=O)OCc2ccccc2)c1, 13-membered ring, Grubbs II (30 mol%), 9.54 mM, 2.0 h
  ring closure, isolated yield: 76%

## O=C1CN2c3cccc(c3)[C@@H](NC(=O)OCc3ccccc3)CC=CCCNC(=O)C2CN1 (stereo partly shown)
[1]; from C=CCCNC(=O)C1CNC(=O)CN1c1cccc([C@H](CC=C)NC(=O)OCc2ccccc2)c1, 13-membered ring, Grubbs II (20 mol%), 9.0 mM, 2.5 h
  ring closure, isolated yield: 89%

## CC(C)(C)OC(=O)N1CCN2c3cccc(c3)[C@@H](NC(=O)OCc3ccccc3)C/C=C/CCNC(=O)[C@@H]2C1
[1]; from C=CCCNC(=O)[C@@H]1CN(C(=O)OC(C)(C)C)CCN1c1cccc([C@H](CC=C)NC(=O)OCc2ccccc2)c1, 13-membered ring, Grubbs II (40 mol%), 7.55 mM, 5.0 h
  ring closure, isolated yield: 93%

## CC(C)(C)OC(=O)N1CCN2c3cccc(c3)[C@@H](NC(=O)OCc3ccccc3)C/C=C/CNC(=O)[C@H]2C1
[1]; from C=CCNC(=O)[C@H]1CN(C(=O)OC(C)(C)C)CCN1c1cccc([C@H](CC=C)NC(=O)OCc2ccccc2)c1, 12-membered ring, Grubbs II (20 mol%), 9.1 mM, 5.0 h
  ring closure, isolated yield: 38.6%

## Cc1c(C(=O)N[C@H]2CCCCCNC(=O)[C@H]3CN(C(=O)OC(C)(C)C)CCN3c3cccc2c3)cnn1-c1cccc(Cl)c1F [Example 18, tert-butyl (7R,15S)-15-[1-(3-chloro-2-fluorophenyl)-5-methyl-1H-pyrazole-4-amido]-8-oxo-2,5,9-triazatricyclo[14.3.1.0^2,7]icosa-1(20),16,18-triene-5-carboxylate, trifluoromethylacetate]
Human Factor XIa
  Ki: 3.31 µM
Human plasma kallikrein
  Ki: 3.83 µM

## O=C1NCCCC[C@H](n2cnc(-c3c(-n4cc(Cl)nn4)ccc(Cl)c3F)cc2=O)c2cc(F)cc(c2)N2C(=O)CC[C@H]12 [Example 32, (6R,13S)-13-{4-[3-chloro-6-(4-chloro-1H-1,2,3-triazol-1-yl)-2-fluorophenyl]-6-oxo-1,6-dihydropyrimidin-1-yl}-16-fluoro-2,8-diazatricyclo[12.3.1.0^2,6]octadeca-1(18),14,16-triene-3,7-dione]
Human Factor XIa
  Ki: 0.0775 µM
Human plasma kallikrein
  Ki: 5.3 µM
